Target: T1, rLacR (UA159) (Streptococcus mutans, UniProt P26422)
T1 sequence (P26422 1-251): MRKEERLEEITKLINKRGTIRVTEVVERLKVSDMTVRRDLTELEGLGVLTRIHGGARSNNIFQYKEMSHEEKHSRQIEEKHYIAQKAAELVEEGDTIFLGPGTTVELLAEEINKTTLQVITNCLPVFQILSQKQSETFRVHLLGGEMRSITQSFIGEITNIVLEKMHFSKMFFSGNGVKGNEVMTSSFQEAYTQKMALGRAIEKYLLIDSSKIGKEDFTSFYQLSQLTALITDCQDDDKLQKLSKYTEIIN
Assay: DNase I footprinting by capillary electrophoresis
Format: binding
Settings: 5 mM; fluorescent UA159 lacA probe

## O=P(O)(O)OC[C@H]1OC(O)[C@H](O)[C@@H](O)[C@H]1O (stereo partly shown) [Gal-6-P]
  DNase I footprinting by capillary electrophoresis (DFACE): addition of Gal-6-P resulted in the appearance of a DNase I hyper-sensitive site

Source: paper PMC7854510 (Molecular microbiology, 2020)
